Measured values taken from patent US7868204B2, “Inhibitors of histone deacetylase” (MethylGene Inc., priority 2001, dated 2011).
pIC50: −log10 of the molar value. Where two headings read alike, the source gives them in different places.

How the values were obtained:
[1] = target: T1, cloned recombinant human HDAC-1 (Homo sapiens, UniProt Q13547); test: Human HDAC-1 enzyme inhibition, Assay 1 ([3H]-acetylated histone substrate, scintillation counting); type: biochemical
T1 construct: made in house; host or cells: Baculovirus insect cell expression system
T1 sequence (Q13547 whole entry): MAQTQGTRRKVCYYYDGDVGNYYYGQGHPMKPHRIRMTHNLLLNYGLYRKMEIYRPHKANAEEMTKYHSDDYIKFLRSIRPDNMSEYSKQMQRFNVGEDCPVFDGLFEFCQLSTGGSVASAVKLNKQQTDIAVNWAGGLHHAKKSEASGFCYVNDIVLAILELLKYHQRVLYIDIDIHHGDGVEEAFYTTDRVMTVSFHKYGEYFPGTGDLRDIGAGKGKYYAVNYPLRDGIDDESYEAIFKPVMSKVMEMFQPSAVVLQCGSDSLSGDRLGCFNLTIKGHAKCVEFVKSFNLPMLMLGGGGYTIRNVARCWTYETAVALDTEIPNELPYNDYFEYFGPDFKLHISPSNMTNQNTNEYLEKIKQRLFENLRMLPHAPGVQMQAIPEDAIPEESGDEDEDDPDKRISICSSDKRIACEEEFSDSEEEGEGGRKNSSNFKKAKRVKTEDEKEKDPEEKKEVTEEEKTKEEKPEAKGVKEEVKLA
Procedure: Assay 1. HDAC inhibitors were screened against a cloned recombinant human HDAC-1 enzyme expressed and purified from a Baculovirus insect cell expression system. […] The mixture was extracted with ethyl acetate and the released [^3H]-acetic acid was quantified by scintillation counting. For inhibition studies, the enzyme was preincubated with compounds at 4° C. for 30 minutes prior to initiation of the enzymatic assay. IC50 values for HDAC enzyme inhibitors were determined by performing dose response curves with individual compounds and determining the concentration of inhibitor producing fifty percent of the maximal inhibition.

HCT116 cells = test: MTT assay; type: cell-based; details: Homo sapiens, HCT116 cells, 72 hours
Procedure: HCT116 cells (2000/well) were plated into 96-well tissue culture plates one day before compound treatment. Compounds at various concentrations were added to the cells. The cells were incubated for 72 hours at 37° C. in 5% CO2 incubator. MTT (3-[4,5-dimethylthiazol-2-yl]-2,5 diphenyl tetrazolium bromide, Sigma) was added at a final concentration of 0.5 mg/ml and incubated with the cells for 4 hours before one volume of solubilization buffer (50% N,N-dimethylformamide, 20% SDS, pH 4.7) was added onto the cultured cells. […] OD values were converted to cell numbers according to a standard growth curve of the relevant cell line.

[2] = Table 5F, read-out: Human HDAC-1 IC50
[3] = Table 5d, read-out: HDAC-1 IC50
[4] = Table 5c, read-out: Human HDAC-1 IC50
[5] = Table 5b, read-out: Human HDAC-1 IC50

| Compound | pIC50 [1, 2] | pIC50 (HCT116 cells; HCT-116, 72 h, Table 5F) | pIC50 [1, 3] | pIC50 (HCT116 cells; HCT-116, Table 5d) | other results |
| --- | --- | --- | --- | --- | --- |
| Cc1ccc(Sc2ccc(C(=O)Nc3ccccc3N)cn2)cc1 [Cpd 464, N-(2-Amino-phenyl)-6-p-tolylsulfanyl-nicotinamide] | 5.40 | 4.96 |  |  |  |
| Nc1ccccc1NC(=O)/C=C/c1ccc(CNc2ccc(-c3ccccc3)cc2)cc1 [Cpd 511, N-(2-Amino-phenyl)-3-[4-(biphenyl-4-ylaminomethyl)-phenyl]-acrylamide] |  |  | 5.40 | < 4.60 |  |
| COc1ccc(C(=O)Nc2ccc(/C=C/C(=O)Nc3ccccc3N)cc2)cc1 [Cpd 72, N-(4-[2-(2-Amino-phenylcarbamoyl)-vinyl]-phenyl}-4-methoxy-benzamide] |  |  |  |  | pIC50 [1, 4]: 4.80; pIC50 (HCT116 cells; HCT-116, 72 h, Table 5c): 4.68 |
| Nc1ccccc1NC(=O)/C=C/c1ccc(CNc2cccc3ccccc23)cc1 [Cpd 558, N-(2-Amino-phenyl)-3-[4-(naphthalen-1-ylaminomethyl)-phenyl]-acrylamide] |  |  | 5.15 | 5.00 |  |
| Nc1ccccc1NC(=O)/C=C/c1ccc(CNc2ccc(N3CCOCC3)cc2)cc1 [Cpd 503, N-(2-Amino-phenyl)-3-{4-[(4-morpholin-4-yl-phenylamino)-methyl]-phenyl}-acrylamide] |  |  | 5.30 | < 4.60 |  |
| Nc1ccccc1NC(=O)/C=C/c1ccc(CNc2ccc(Cl)cc2)cc1 [Cpd 552, N-(2-Amino-phenyl)-3-{4-[(4-chloro-phenylamino)-methyl]-phenyl}-acrylamide] |  |  | 5.40 | 4.66 |  |
| Nc1ccccc1NC(=O)/C=C/c1ccc(CNc2cc(Cl)cc(Cl)c2)cc1 [Cpd 535, N-(2-Amino-phenyl)-3-{4-[(3,5-dichloro-phenylamino)-methyl]-phenyl}-acrylamide] |  |  | 5.40 | 5.22 |  |
| Nc1ccccc1NC(=O)c1ccc(N2CCOCC2)cc1 [Cpd 238] | 5.52 | 5.22 |  |  |  |
| Nc1ccccc1NC(=O)/C=C/c1ccc(CNc2cccc(CO)c2)cc1 [Cpd 530, N-(2-Amino-phenyl)-3-{4-[(3-hydroxymethyl-phenylamino)-methyl]-phenyl}-acrylamide] |  |  | 5.10 | 5.05 |  |
| Nc1ccccc1NC(=O)c1ccc(CNc2nccc3ccccc23)cc1 [Cpd 399, N-(2-Amino-phenyl)-4-(isoquinolin-1-ylaminomethyl)-benzamide] | 4.85 | 5.05 |  |  |  |
| Nc1ccccc1NC(=O)c1ccc(C#CC(c2ccc(Cl)cc2)N2CCOCC2)cc1 (stereo not shown) [Cpd 201] | 4.96 | 5.30 |  |  |  |
| Nc1ccccc1NC(=O)/C=C/c1ccc(Br)cc1 [Cpd 516, N-(2-Amino-phenyl)-3-(4-bromo-phenyl)-acrylamide] |  |  | 4.82 | 4.82 |  |
| COc1cccc(CCNc2nc(NCc3ccc(C(=O)Nc4ccccc4N)cc3)nc(NC3CC3)n2)c1 [Cpd 479] |  |  |  |  | pIC50 [1, 5]: 6.40; pIC50 (HCT116 cells; HCT-116, 72 h, Table 5b): 6.22 |
| Nc1ccccc1NC(=O)c1ccc(-c2noc(CN3CCOCC3)n2)cc1 [Cpd 355, N-(2-Amino-phenyl)-4-(5-morpholin-4-ylmethyl-[1,2,4]oxadiazol-3-yl)-benzamide] | 4.60 | 5.00 |  |  |  |
| Nc1ccccc1NC(=O)c1ccc(Sc2ccc3ccccc3n2)nc1 [compound 319, N-(2-Amino-phenyl)-6-(quinolin-2-ylsulfanyl)-nicotinamide] | 5.40 | 5.10 |  |  |  |
| Nc1ccccc1NC(=O)/C=C/c1ccc(CNc2cccc(S(N)(=O)=O)c2)cc1 [Cpd 538, N-(2-Amino-phenyl)-3-{4-[(3-sulfamoyl-phenylamino)-methyl]-phenyl}-acrylamide] |  |  | 5.40 | 4.92 |  |
| Cc1cc(C)n(-c2ccc(C(=O)Nc3ccccc3N)cc2)n1 [compound 286, N-(2-Amino-phenyl)-4-(3,5-dimethyl-pyrazol-1-yl)-benzamide] | 5.30 | 5.70 |  |  |  |
| Nc1ccccc1NC(=O)/C=C/c1ccc(NCCNc2nccs2)nc1 [Cpd 522, N-(2-Amino-phenyl)-3-{6-[2-(thiazol-2-ylamino)-ethylamino]-pyridin-3-yl}-acrylamide] |  |  | 4.77 | 4.52 |  |
| Nc1ccc(CNc2ncc(/C=C/C(=O)Nc3ccccc3N)cn2)cc1 [Cpd 115, 3-[2-(4-amino-benzylamino)-pyrimidin-5-yl]-N-(2-amino-phenyl)-acrylamide] |  |  |  |  | pIC50 [1, 4]: 4.82; pIC50 (HCT116 cells; HCT-116, 72 h, Table 5c): 5.05 |
| Nc1ccccc1NC(=O)/C=C/c1ccc(CNc2cccc([N+](=O)[O-])c2)cc1 [Cpd 551, N-(2-Amino-phenyl)-3-{4-[(3-nitro-phenylamino)-methyl]-phenyl}-acrylamide] |  |  | 4.62 | 5.05 |  |
| Nc1ccccc1NC(=O)c1ccc(C(=O)Nc2ccccc2N)nc1 [Cpd 380, Pyridine-2,5-dicarboxylic acid bis-[(2-amino-phenyl)-amide]] | 5.22 | 5.10 |  |  |  |

| Compound | pIC50 [1, 2] | pIC50 (HCT116 cells; HCT-116, 72 h, Table 5F) | pIC50 [1, 3] | pIC50 (HCT116 cells; HCT-116, Table 5d) | other results |
| --- | --- | --- | --- | --- | --- |
| Nc1ccccc1NC(=O)/C=C/c1ccc(CNc2cccc(Cl)c2)cc1 [Cpd 553, N-(2-Amino-phenyl)-3-{4-[(3-chloro-phenylamino)-methyl]-phenyl}-acrylamide] |  |  | 5.40 | 4.92 |  |
| COc1cc(OC)c(OC)cc1CNc1ccc(/C=C/C(=O)Nc2ccccc2N)cc1 [Cpd 517] |  |  | 5.22 | 5.30 |  |
| Nc1nc(/C=C/c2ccc(C(=O)Nc3ccccc3N)cc2)nc(N2CCCCC2)n1 [Cpd 223] |  |  |  |  | pIC50 [1, 5]: 4.96; pIC50 (HCT116 cells; HCT-116, 72 h, Table 5b): 5.70 |
| Cc1nc(-c2ccc(C(=O)Nc3ccccc3N)cc2)no1 [Cpd 353, N-(2-Amino-phenyl)-4-(5-methyl-[1,2,4]oxadiazol-3-yl)-benzamide] | 5.52 | 5.00 |  |  |  |
| COc1cc(NCc2ccc(C(=O)Nc3ccccc3N)cc2)cc(OC)c1OC [Cpd 571] | 5.40 | 4.96 |  |  |  |
| COc1cc(CCc2ccc(/C=C/C(=O)Nc3ccccc3N)cc2)cc(OC)c1OC [Cpd 540, N-(2-Amino-phenyl)-3-{4-[2-(3,4,5-trimethoxy-phenyl)-ethyl]-phenyl}-acrylamide] |  |  | 5.00 | 5.00 |  |
| CN1CCN(c2ccc(NCc3ccc(/C=C/C(=O)Nc4ccccc4N)cc3)cc2F)CC1 [Cpd 527, N-(2-Amino-phenyl)-3-(4-{[3-fluoro-4-(4-methyl-piperazin-1-yl)-phenylamino]-methyl}-phenyl)-acrylamide] |  |  | 5.40 | 5.52 |  |
| COc1ccc(NCc2ccc(/C=C/C(=O)Nc3ccccc3N)cc2)c(OC)c1OC [Cpd 562, N-(2-Amino-phenyl)-3-[4-[(2,3,4-trimethoxy-phenylamino)-methyl]-phenyl}-acrylamide] |  |  | 5.30 | 5.30 |  |
| CC(=O)NCc1cccc(NCc2ccc(/C=C/C(=O)Nc3ccccc3N)cc2)c1 [Cpd 533, 3-(4-{[3-(Acetylamino-methyl)-phenylamino]-methyl}-phenyl)-N-(2-amino-phenyl)-acrylamide] |  |  | 5.30 | 4.96 |  |
| C=C(C)C#Cc1ccc(C(=O)Nc2ccccc2N)cc1 [Cpd 193] | 5.40 | 4.80 |  |  |  |
| C[Si](C)(C)C#Cc1ccc(C(=N)Nc2ccccc2N)cc1 [Cpd 198] | 4.62 |  |  |  | pIC50 (HCT116 cells; HCT-116, Table 5F): 4.85 |
| CCCc1nc(Cc2ccc(C(=O)Nc3ccccc3N)cc2)no1 [Cpd 356] | 5.30 | 5.70 |  |  |  |
| COc1ccc(C2=NCC(c3ccc(C(=O)Nc4ccccc4N)cc3)O2)cc1OC (stereo not shown) [compound 305, N-(2-Amino-phenyl)-4-[2-(3,4-dimethoxy-phenyl)-4,5-dihydro-oxazol-5-yl]-benzamide] | 5.40 | 5.70 |  |  |  |
| Nc1ccccc1NC(=O)c1ccc(CNc2nc(NCCc3ccccc3)nc(NC3Cc4ccccc4C3)n2)cc1 [Cpd 27] |  |  |  |  | pIC50 ([1]; Table 5a, read-out: Human HDAC-1 IC50): 6.40; pIC50 (HCT116 cells; HCT-116, 72 h, Table 5a): 5.70 |
| COc1ccc(CNc2ccc(/C=C(\C)C(=O)Nc3ccccc3N)cn2)cc1 [Cpd 61b, N-(2-aminophenyl)-3-[6-(4-methoxy-benzylamino)-pyridin-3-yl]-2-methyl-acrylamide] |  |  |  |  | pIC50 [1, 4]: 5.15; pIC50 (HCT116 cells; HCT-116, 72 h, Table 5c): 4.92 |
| COc1cc(CNCc2ccc(/C=C/C(=O)Nc3ccccc3N)cc2)cc(OC)c1OC [Cpd 59, N-(2-aminophenyl)-3-{4-[(3,4,5-trimethoxy-benzylamino)-methyl]-phenyl}-acrylamide] |  |  |  |  | pIC50 [1, 4]: 4.92; pIC50 (HCT116 cells; HCT-116, 72 h, Table 5c): 4.66 |
| COc1ccc(NCc2ccc(/C=C/C(=O)Nc3ccccc3N)cc2)cc1CNc1cc(OC)c(OC)c(OC)c1 [Cpd 563, N-(2-Amino-phenyl)-3-[4-([4-methoxy-3-[(3,4,5-trimethoxy-phenylamino)-methyl]-phenylamino}-methyl)-phenyl]-acrylamide] |  |  | 4.62 | 5.22 |  |
| Nc1ccccc1NC(=O)c1ccc(C#Cc2ccccc2)cc1 [Cpd 196] | 5.40 | 5.52 |  |  |  |
| COc1ccc(CNc2ncc(/C=C/C(=O)Nc3ccccc3N)cn2)cc1 [Cpd 118, N-(2-amino-phenyl)-3-[2(4-methoxy-benzylamino)-pyrimidin-5-yl]-acrylamide] |  |  |  |  | pIC50 [1, 4]: 4.96; pIC50 (HCT116 cells; HCT-116, 72 h, Table 5c): 5.10 |
| CC(C)(O)C#Cc1ccc(C(=O)Nc2ccccc2N)cc1 [Cpd 195] | 5.15 | 5.05 |  |  |  |
